# Laboratory results from US7169787B2, “7-azaindoles, use thereof as phosphodiesterase 4 inhibitors and method for producing the same” (Elbion AG, priority 2000, dated 2007).
# Counter-ions that a name gives are not always drawn.
# What was measured:
# PDE 4 = experiment: Inhibition of phosphodiesterase 4 (enzyme preparation from human PMNL, [3H]-cAMP); assay type: biochemical; conditions: PDE 4 from human PMNL cytosol, 0.5 μM [3H]-cAMP
# Protocol: The PDE 4 activity is determined in enzyme preparations from human polymorphonuclear […] (PMNL) and the PDE 2, 3 and 5 activity is determined with PDE from human thrombocytes. Human blood was anti-coagulated with citrate. By centrifuging at 700×g for 20 minutes at room temperature, the thrombocyte-rich plasma in the supernatant is separated from the erythrocytes and leukocytes. The thrombocytes are lysed by ultrasound and used in the PDE 3 and PDE 5 assays. For the determination of the PDE 2 activity, the cytosolic thrombocyte fraction is purified on an anionic exchange column by means of NaCl gradients and the PDE 2 peak is obtained for the assay. The PMNLs for the PDE 4 determination are isolated by a subsequent dextran sedimentation, followed by a gradient centrifugation with Ficoll-Paque. After the cells have been washed twice, the erythrocytes, still contained, are lysed within 6 minutes at 4° C. by the addition of 10 mL of hypotonic buffer (155 mM of NH4Cl, 10 mM of NaHCO3, 0.1 mM of EDTA, pH=7.4). The PMNLs, which are still intact, are washed twice with PBS and lysed with ultrasound. The supernatant of a one-hour centrifugation at 4° C. at 48,000×g contains the cytosolic fraction of the PDE 4 and is used for the PDE 4 measurements.
# The phosphodiesterase activity is determined using the method described by Thompson et al. with some modifications (Thompson, W. J. and M. M. Appleman, Assay of cyclic nucleotide phosphodiesterase and resolution of multiple molecular forms of the enzyme, Adv. Cycl. Nucl. Res. 1979, 10, 69–92).
# The reaction mixtures contain 50 mM of tris hydrochloride (pH 7.4), 5 mM of magnesium chloride, the inhibitors in various concentrations, the corresponding enzyme preparation as well as the further components necessary for determining the individual isoenzymes (see below). The reaction is started by the addition of the substrate, 0.5 μM of [^3H]-cAMP or [^3H]-cGMP (approximately 6000 CPM per test). The final volume is […]. Test substances are mixed as stock solutions in DMSO. The DMSO concentration in the reaction mixture is 1% v/v. The PDE activity is not affected by this concentration of DMSO. After the reaction is started by the addition of substrate, samples are incubated for 30 minutes at 37° C. The reaction is stopped by heating the test tubes for 2 minutes at 110° C. The samples remain for a further 10 minutes in ice. The addition of 30 μL of 5′-nucleotidase (1 mg/mL, from a poisonous snake suspension from Crotalus adamanteus) is followed by a 10-minutes incubation at 37° C. The samples are stopped on ice, in each case 400 μL of a mixture of Dowex, water and ethanol (1+1+1) is added, mixed well and incubated once again for 15 minutes on ice. The reaction vessels are centrifuged for 20 minutes at 3000×g. Aliquots of the supernatant (200 μL) are transferred directly to scintillation vessels. After the addition of 3 mL of scintillator, the samples are measured in the beta counter.
# [^3H]-cAMP is used as substrate for the determination of the PDE 4, 3 and 2 activity and [^3H]-cGMP is used as substrate for the determination of the PDE 5 activity. The enzyme activities, which are nonspecific in each case, are determined in the presence of 100 μM of Rolipram for the determination of PDE 4 and in the presence of 100 μM of IBMX for the determination of the PDE 3 and 5 and subtracted from the test values. The incubation formulations of the PDE 3 assays contained 10 μM of Rolipram, in order to inhibit possible contaminations by PDE 4. The PDE 2 is tested with an SPA assay of the Amersham Company. The assay is carried out in the presence of the activator of the PDE 2 (5 μM of cGMP).
# [1] = system: release of TNFα from cells of nasal polyps; experiment: Inhibition of the release of TNFα from cells of nasal polyps (anti-IgE stimulated, ELISA); assay type: cell-based; conditions: Homo sapiens; concentration 1.0 μmole/L; anti-IgE stimulated nasal polyp cells
# Protocol: The experimental arrangement corresponds essentially to the method described by Campbell, A. M. and J. Bousquet (Anti-allergic activity of H1-blockers, Int. Arch. Allergy Immunol., 1993, 101, 308–310). Nasal polyps form the starting material (material from patients, who had been subjected to a surgical treatment).
# The tissue is washed with RPMI 1640 and subsequently digested with protease (2.0 mg/mL), collagenase (1.5 mg/mL), hyaluronidase (0.75 mg/mL), and DNAse (0.05 mg/mL) for two hours at 37° C. (1 g of tissue and 4 mL of RPMI 1640 with enzymes). The cells obtained, a mixture of epithelial cells, monocytes, macrophages, lymphocytes, fibroblasts and granulocytes, are filtered and washed by being centrifuged repeatedly in culture solution and sensitized passively by the addition of human IgE and the cell suspension is brought to a concentration of 2 million cells/mL in RPMI 1640 (supplemented by antibiotics, 10% fetal calf serum, 2 mM of glutamine and 25 mM of Hepes). This suspension is distributed on six-well cell culture plates (1 ml/well). The cells are pre-incubated for 30 minutes with the test substances in different final concentrations and subsequently stimulated to release TNFα by the addition of anti-IgE (7.2 μg/mL). The maximum release into the culture medium takes place after about 18 hours. During this period, the cells are incubated at 37° C. and 5% carbon dioxide. The culture medium (supernatant) is recovered by centrifuging (five minutes at 4000 rpm) and kept at −70° C. until the cytokin is determined. The TNFα in the supernatant is determined with so-called sandwich ELISAs (basic material Pharmingen), with which cytokin concentrations ranging from 30 to 1000 pg/mL can be determined.
# Cells, not stimulated with anti IgE, hardly produce any TNFα; on the other hand, stimulated cells secrete large amounts of TNFα, which can be reduced, for example, by PDE 4 inhibitors as a function of the dose. From the percentage inhibition (TNFα release by the cells, stimulated with anti IgE=100%) of the substances tested at different concentrations, the IC50 (concentration at 50% inhibition) is calculated.
# [2] = system: actively sensitized Brown Norway Rats; experiment: Inhibition of the late phase eosinophilia 48 hours after inhalative ovalbumin challenge; assay type: in vivo, rat; conditions: 2 h before allergen challenge, BAL 48 h after challenge
# Protocol: The inhibition of pulmonary eosinophilia infiltration by the inventive substances is tested on male Brown Norway Rats (200–250 g), which had been actively sensitized against ovalbumin (OVA). The rats were sensitized by subcutaneous injections of a suspension of 10 μg OVA together with 20 mg of aluminum hydroxide as adjuvant in 0.5 mL of physiological salt solution per animal on days 1, 14 and 21. In addition, the animals at the same time received Bordetella pertussis vaccine dilution injected 0.25 mL i.p. per animal. On the 28th day of the experiment, the animals are placed individually in open 1 L Plexiglas boxes, which are connected to a head-nose exposure device. The animals are exposed to an aerosol of 1.0% ovalbumin suspension (allergen challenge). The ovalbumin aerosol is produced by a nebulizer (Bird Micronebulizer, Palm Springs Calif., USA), which is operated with compressed air (0.2 MPa). The exposure time is one hour, normal controls being nebulized also for one hour with an aerosol of 0.9% salt solution.
# Forty-eight hours after the allergen challenge, there is a massive migration of eosinophilic granulocytes into the lungs of the animals. At this time, the animals are anesthetized with an excess of ethyl urethane (1.5 g/kg of body weight i.p.) and a bronchoalveolar lavage (BAL) with 3×4 mL of Hank's balance solution is carried out. The total cell count and the number of eosinophilic granulocytes of the pooled BAL liquid are subsequently determined with an automatic cell differentiation instrument (Bayer Diagnostics Technicon HIE). For each animal, the eosinophiles (EOS) in the BAL are calculated in millions/animal: EOS/μl×BAL recovery (mL)=EOS/animal.
# For each test, 2 control groups were run (nebulization with physiological salt solution and nebulization with OVA solution).
# The percentage inhibition of the eosinophilia of the experimental group, treated with substance, was calculated according to the following formula: {((OVAC−SC)−(OVAD−SC))/(OVAC−SC)}×100%=% inhibition (SC=vehicle-treated control group challenged with 0.9% salt solution; OVAC=vehicle-treated control group challenged with 1% ovalbumin suspension; OVAD=substance-treated experimental group challenged with 1% ovalbumin suspension)
# The test substances are applied i.p. or orally as a suspension in 10% polyethylene glycol 300 and 0.5% 5-hydroxyethylcellulose for two hours before the allergen challenge. The control groups are treated with the vehicle in accordance with the application form of the test substance.
SMILES,melting point,IC50 (PDE 4),inhibition at 1 µM [1],Inhibition of Eosinophilia ([2]; 10 mg/kg i.p.),Inhibition of Eosinophilia ([2]; 10 mg/kg p.o.)
O=C(Nc1ccncc1)C(=O)c1cn(Cc2ccc(F)cc2)c2ncccc12 (as salt: HCl) [Example 13],275 to 278 °C (dec.),,,,
O=C(Nc1ccncc1)C(=O)c1cn(Cc2ccc(Cl)cc2)c2ncccc12 (as salt: HCl) [Example 15],280 to 283 °C (dec.),,,,
"O=C(NCc1ccncc1)c1cn(CC2CC2)c2ncccc12 [Example 1, N-(4-Pyridylmethyl)-1-cyclopropylmethyl-7-azaindole-3-carboxylic Acid Amide]",,710 nM,,,
CC(C)Cn1cc(C(=O)Nc2c(Cl)cncc2Cl)c2cccnc21 [Example 2],,1400 nM,,,
"COc1cccc(Cn2cc(C(=O)C(=O)Nc3c(Cl)cncc3Cl)c3cccnc32)c1 [Example 12, N-(3,5-Dichloropyridine-4-yl)-[1-(3-methoxybenzyl)-7-azaindole-3-yl]-glyoxylic Acid Amide]",165 to 167 °C,5 nM,,,
O=C(Nc1ccncc1)C(=O)c1cn(Cc2ccc(F)cc2)c2ncccc12 [Example 13],,58 nM,,,
O=C(Nc1ccncc1)C(=O)c1cn(Cc2ccc(Cl)cc2)c2ncccc12 [Example 15],,31 nM,,,
O=C(Nc1c(Cl)cncc1Cl)C(=O)c1cn(Cc2ccc(Cl)cc2)c2ncccc12 [Example 16],205 to 207 °C,2 nM,90%,100%,70%
COc1ccc(Cn2cc(C(=O)C(=O)Nc3c(Cl)cncc3Cl)c3cccnc32)cc1 [Example 17],165 to 167 °C,8 nM,91%,75%,32%
O=C(Nc1c(Cl)cccc1Cl)C(=O)c1cn(Cc2ccc(Cl)cc2)c2ncccc12 [Example 18],166 to 168 °C,31 nM,,,
O=C(Nc1c(Cl)cncc1Cl)C(=O)c1cn(Cc2ccc(O)cc2)c2ncccc12 [Example 23],140 to 142 °C,1 nM,,,
O=C(Nc1c(Cl)cncc1Cl)C(=O)c1cn(Cc2cccc(O)c2)c2ncccc12 [Example 24],241 to 244 °C,3 nM,,,
O=C(Nc1c(Cl)cncc1Cl)C(=O)c1cn(CC2CC2)c2ncccc12 [Example 25],215 to 218 °C,4 nM,,,
CCCCCCn1cc(C(=O)C(=O)Nc2c(Cl)cncc2Cl)c2cccnc21 [Example 26],165 to 167 °C,21 nM,,,
C=C(C)Cn1cc(C(=O)C(=O)Nc2c(Cl)cncc2Cl)c2cccnc21 [Example 28],114 to 116 °C,3 nM,,,
Cc1noc(C)c1Cn1cc(C(=O)C(=O)Nc2c(Cl)cncc2Cl)c2cccnc21 [Example 32],196 to 198 °C,113 nM,,,
Cc1[nH]c(=O)[nH]c(=O)c1NC(=O)C(=O)c1cn(Cc2ccc(F)cc2)c2ncccc12 [Example 37],297 to 300 °C (dec.),987 nM,,,
